pIC50: −log10 of the molar value.
Target: T1, PLK1 (Homo sapiens, UniProt P53350)
T1 construct: Full-length, active GST-PLK1 is purified from Sf9 insect cells; made in house; host or cells: Sf9 insect cells
Test: Biochemical Characterization Assay: HTRF kinase assay, GST-PLK1 phosphorylation of GST-p53
Conditions: GST-PLK1, GST-p53 substrate, ATP
How it was run: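 Full-length active GST-PLK1 (Sf9, 3 ug/mL) phosphorylated full-length GST-p53 (E. coli) in Kinase Assay Buffer for 35 min at 37 °C. Stopped with EDTA; phospho-p53 detected by HTRF with anti-phospho-p53, Eu-anti-rabbit and APC-anti-GST antibodies.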

T1 sequence (P53350 whole entry): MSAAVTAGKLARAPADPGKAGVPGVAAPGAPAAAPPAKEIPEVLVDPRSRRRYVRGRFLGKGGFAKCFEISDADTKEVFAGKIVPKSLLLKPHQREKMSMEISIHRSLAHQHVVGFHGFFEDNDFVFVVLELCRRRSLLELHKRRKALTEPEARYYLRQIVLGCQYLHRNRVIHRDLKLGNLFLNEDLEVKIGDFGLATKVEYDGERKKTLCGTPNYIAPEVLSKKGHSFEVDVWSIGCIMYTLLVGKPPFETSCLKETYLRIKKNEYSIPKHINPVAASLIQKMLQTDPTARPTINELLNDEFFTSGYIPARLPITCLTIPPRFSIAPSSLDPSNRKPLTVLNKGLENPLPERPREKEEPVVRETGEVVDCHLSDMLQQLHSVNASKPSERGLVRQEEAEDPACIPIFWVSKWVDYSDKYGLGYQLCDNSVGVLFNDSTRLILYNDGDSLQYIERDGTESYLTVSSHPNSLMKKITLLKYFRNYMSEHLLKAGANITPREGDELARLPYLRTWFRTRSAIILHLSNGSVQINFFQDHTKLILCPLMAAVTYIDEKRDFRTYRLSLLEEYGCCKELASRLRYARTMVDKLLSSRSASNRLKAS

| pIC50 | SMILES |
| --- | --- |
| 7.30 to 9.00 | COc1cc(C(=O)N[C@H]2CC[C@H](O)CC2)ccc1Nc1ncc2c(n1)N(C1CCCC1)CC(F)(F)C(=O)N2C [Example I-69, trans-4-(9-cyclopentyl-7,7-difluoro-5-methyl-6-oxo-6,7,8,9-tetrahydro-5H-pyrimido[4,5-b][1,4]diazepin-2-ylamino)-N-(4-hydroxy-cyclohexyl)-3-methoxy-benzamide] |
| 6.30 to 7.29 | COc1cc(C(=O)NC2CCN(C(=O)OC(C)(C)C)CC2)ccc1Nc1ncc2c(n1)N(C1CCCC1)CC(F)(F)C(=O)N2C [Example I-71, 4-[4-(9-cyclopentyl-7,7-difluoro-5-methyl-6-oxo-6,7,8,9-tetrahydro-5H-pyrimido[4,5-b][1,4]diazepin-2-ylamino)-3-methoxy-benzoylamino]-piperidine-1-carboxylic acid tert-butyl ester] |
| 7.30 to 9.00 | COc1cc(C(=O)NC2CCNCC2)ccc1Nc1ncc2c(n1)N(C1CCCC1)CC(F)(F)C(=O)N2C [Example I-72, 4-(9-cyclopentyl-7,7-difluoro-5-methyl-6-oxo-6,7,8,9-tetrahydro-5H-pyrimido[4,5-b][1,4]diazepin-2-ylamino)-3-methoxy-N-piperidin-4-yl-benzamide] |
| 7.30 to 9.00 | COc1cc(C(=O)NC2CCN(CCF)CC2)ccc1Nc1ncc2c(n1)N(C1CCCC1)CC(F)(F)C(=O)N2C [Example I-75, 4-(9-cyclopentyl-7,7-difluoro-5-methyl-6-oxo-6,7,8,9-tetrahydro-5H-pyrimido[4,5-b][1,4]diazepin-2-ylamino)-N-[1-(2-fluoro-ethyl)-piperidin-4-yl]-3-methoxy-benzamide] |
| 6.30 to 7.29 | COc1cc(C(=O)N[C@@H]2CCN(C(=O)OC(C)(C)C)C2)ccc1Nc1ncc2c(n1)N(C1CCCC1)CC(F)(F)C(=O)N2C [Example I-81, R-3-[4-(9-cyclopentyl-7,7-difluoro-5-methyl-6-oxo-6,7,8,9-tetrahydro-5H-pyrimido[4,5-b][1,4]diazepin-2-ylamino)-3-methoxy-benzoylamino]-pyrrolidine-1-carboxylic acid tert-butyl ester] |
| 7.30 to 9.00 | COc1cc(C(=O)N[C@H]2CCN(C(=O)OC(C)(C)C)C2)ccc1Nc1ncc2c(n1)N(C1CCCC1)CC(F)(F)C(=O)N2C [Example I-82, S-3-[4-(9-cyclopentyl-7,7-difluoro-5-methyl-6-oxo-6,7,8,9-tetrahydro-5H-pyrimido[4,5-b][1,4]diazepin-2-ylamino)-3-methoxy-benzoylamino]-pyrrolidine-1-carboxylic acid tert-butyl ester] |
| 7.30 to 9.00 | COc1cc(C(=O)N[C@H]2CCNC2)ccc1Nc1ncc2c(n1)N(C1CCCC1)CC(F)(F)C(=O)N2C [Example I-83, S-4-(9-cyclopentyl-7,7-difluoro-5-methyl-6-oxo-6,7,8,9-tetrahydro-5H-pyrimido[4,5-b][1,4]diazepin-2-ylamino)-3-methoxy-N—(S)-pyrrolidin-3-yl-benzamide] |

The remaining lines, values behind:

| SMILES | pIC50 |
| --- | --- |
| COc1cc(C(=O)NC2CCN(C(=O)OCC3c4ccccc4-c4ccccc43)CC2)ccc1Nc1ncc2c(n1)N(C1CCCC1)CC(F)(F)C(=O)N2C [Example I-70, 4-[4-(9-cyclopentyl-7,7-difluoro-5-methyl-6-oxo-6,7,8,9-tetrahydro-5H-pyrimido[4,5-b][1,4]diazepin-2-ylamino)-3-methoxy-benzoylamino]-piperidine-1-carboxylic acid 9H-fluoren-9-ylmethyl ester] | 7.30 to 9.00 |
| COc1cc(C(=O)NCCCNC(=O)OCC2c3ccccc3-c3ccccc32)ccc1Nc1ncc2c(n1)N(C1CCCC1)CC(F)(F)C(=O)N2C [Example I-73, {3-[4-(9-cyclopentyl-7,7-difluoro-5-methyl-6-oxo-6,7,8,9-tetrahydro-5H-pyrimido[4,5-b][1,4]diazepin-2-ylamino)-3-methoxy-benzoylamino]-propyl}-carbamic acid 9H-fluoren-9-ylmethyl ester] | 6.30 to 7.29 |
| COc1cc(C(=O)NCCCN)ccc1Nc1ncc2c(n1)N(C1CCCC1)CC(F)(F)C(=O)N2C [Example I-74, N-(3-amino-propyl)-4-(9-cyclopentyl-7,7-difluoro-5-methyl-6-oxo-6,7,8,9-tetrahydro-5H-pyrimido[4,5-b][1,4]diazepin-2-ylamino)-3-methoxy-benzamide] | 7.30 to 9.00 |
| COc1cc(C(=O)NC2CCN(CCCS(C)(=O)=O)CC2)ccc1Nc1ncc2c(n1)N(C1CCCC1)CC(F)(F)C(=O)N2C [Example I-76, 4-(9-cyclopentyl-7,7-difluoro-5-methyl-6-oxo-6,7,8,9-tetrahydro-5H-pyrimido[4,5-b][1,4]diazepin-2-ylamino)-N-[1-(3-methanesulfonyl-propyl)-piperidin-4-yl]-3-methoxy-benzamide] | 7.30 to 9.00 |
| COc1cc(C(=O)NC2CCN(CC(F)(F)F)CC2)ccc1Nc1ncc2c(n1)N(C1CCCC1)CC(F)(F)C(=O)N2C [Example I-77, 4-(9-cyclopentyl-7,7-difluoro-5-methyl-6-oxo-6,7,8,9-tetrahydro-5H-pyrimido[4,5-b][1,4]diazepin-2-ylamino)-3-methoxy-N-[1-(2,2,2-trifluoro-ethyl)-piperidin-4-yl]-benzamide] | 7.30 to 9.00 |
| COc1cc(C(=O)NCCCN(C)C)ccc1Nc1ncc2c(n1)N(C1CCCC1)CC(F)(F)C(=O)N2C [Example I-78, 4-(9-cyclopentyl-7,7-difluoro-5-methyl-6-oxo-6,7,8,9-tetrahydro-5H-pyrimido[4,5-b][1,4]diazepin-2-ylamino)-N-(3-dimethylamino-propyl)-3-methoxy-benzamide] | 7.30 to 9.00 |
| COc1cc(C(=O)NCCCN2CCOCC2)ccc1Nc1ncc2c(n1)N(C1CCCC1)CC(F)(F)C(=O)N2C [Example I-79, 4-(9-cyclopentyl-7,7-difluoro-5-methyl-6-oxo-6,7,8,9-tetrahydro-5H-pyrimido[4,5-b][1,4]diazepin-2-ylamino)-3-methoxy-N-(3-morpholin-4-yl-propyl)-benzamide] | 7.30 to 9.00 |
| COc1cc(C(=O)NCCCN2CCCC2)ccc1Nc1ncc2c(n1)N(C1CCCC1)CC(F)(F)C(=O)N2C [Example I-80, 4-(9-cyclopentyl-7,7-difluoro-5-methyl-6-oxo-6,7,8,9-tetrahydro-5H-pyrimido[4,5-b][1,4]diazepin-2-ylamino)-3-methoxy-N-(3-pyrrolidin-1-yl-propyl)-benzamide] | 7.30 to 9.00 |
| COc1cc(C(=O)NCCCN2CCCCC2)ccc1Nc1ncc2c(n1)N(C1CCCC1)CC(F)(F)C(=O)N2C [Example I-84, 4-(9-cyclopentyl-7,7-difluoro-5-methyl-6-oxo-6,7,8,9-tetrahydro-5H-pyrimido[4,5-b][1,4]diazepin-2-ylamino)-3-methoxy-N-(3-piperidin-1-yl-propyl)-benzamide] | 7.30 to 9.00 |
| COc1cc(C(=O)NC2CC(C)(C)N(C)C(C)(C)C2)ccc1Nc1ncc2c(n1)N(C1CCCC1)CC(F)(F)C(=O)N2C [Example I-85, 4-(9-cyclopentyl-7,7-difluoro-5-methyl-6-oxo-6,7,8,9-tetrahydro-5H-pyrimido[4,5-b][1,4]diazepin-2-ylamino)-3-methoxy-N-(1,2,2,6,6-pentamethyl-piperidin-4-yl)-benzamide] | 7.30 to 9.00 |
| COc1cc(C(=O)NCCCN2CCN(C)CC2)ccc1Nc1ncc2c(n1)N(C1CCCC1)CC(F)(F)C(=O)N2C [Example I-87, 4-(9-cyclopentyl-7,7-difluoro-5-methyl-6-oxo-6,7,8,9-tetrahydro-5H-pyrimido[4,5-b][1,4]diazepin-2-ylamino)-3-methoxy-N-[3-(4-methyl-piperazin-1-yl)-propyl]-benzamide] | 7.30 to 9.00 |

From patent US8003785B2 (Takeda Pharmaceutical Company Limited, priority 2008, dated 2011)
